Experimental data: BindingDB's records for doi:10.1021/jm7014155 (Bryn Mawr College, 2008)

Target: Indoleamine 2,3-dioxygenase 1 (Homo sapiens, UniProt P14902)
Test: Enzyme Inhibition Assay
Details: pH 6.5; 37 °C
Experimental: The IC50 inhibition assays were performed in a 96-well microtiter plate format using purified recombinant IDO, which was added to the substrate, L-tryptophan (L-Trp), and the inhibitor. After the reaction, the product N-formylkynurenine was converted to kynurenine. The yellow color generated from reaction with kynurenine was measured at 490 nm using a microtiter plate reader. The data were analyzed using Graph Pad Prism 4 software (Graph Pad Software Inc.).

Chain of Indoleamine 2,3-dioxygenase 1 (P14902 whole entry): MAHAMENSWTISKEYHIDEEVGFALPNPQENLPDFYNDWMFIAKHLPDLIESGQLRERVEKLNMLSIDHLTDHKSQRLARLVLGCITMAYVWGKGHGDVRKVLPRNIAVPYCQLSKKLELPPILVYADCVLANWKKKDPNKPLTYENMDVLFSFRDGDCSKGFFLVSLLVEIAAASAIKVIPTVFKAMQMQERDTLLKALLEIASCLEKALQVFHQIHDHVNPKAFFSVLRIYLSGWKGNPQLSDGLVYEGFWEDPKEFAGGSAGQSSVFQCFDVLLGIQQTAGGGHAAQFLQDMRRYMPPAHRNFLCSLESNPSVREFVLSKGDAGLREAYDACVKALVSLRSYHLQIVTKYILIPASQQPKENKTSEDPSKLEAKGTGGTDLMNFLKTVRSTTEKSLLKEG

IC50 [µM]	SMILES
1.1	CC1=CC(=O)c2ccccc2C1=O [Vitamin K3]
675	O=C1CC(=O)c2ccccc2C1=O
